Experimental data published in patent publication US20250228836A1, “BILASTINE COMPOSITION FOR ONCE-DAILY PARENTERAL ADMINISTRATION” (FAES FARMA, S.A., priority 2022, published 2025).
In brackets after ≈: the same amount, converted by molar mass.

Columns and labels:
[1] = Solubility of bilastine vs. HPβCD concentration and pH; assay type: physicochemical; conditions: aqueous HPβCD solution, thermodynamic from solid
Method: The concentration of bilastine in the solubility tests was determined by UV/vis spectrophotometer was a Cary® 60 UV-VIS.
The solubility of bilastine was determined at different concentrations of HPβCD and pH values.
The desired amount of HPβCD was dispersed in 40 ml of purified water in a 50 ml flask until complete dissolution and further diluted with water up to a final volume of 50 ml. Each solution was divided into three solutions (15 ml each) and the pH was adjusted with HCl 37% to the desired values (3, 5 or 7, respectively). Each solution was transferred again into three vials (5 mL solution each) in order to have several replicates for each sample. Bilastine was added in excess to each vial and the solutions were kept under magnetic stirring for 24 hours. After that time, the pH was adjusted again and they were kept stirring for another 24 hours. Finally, the samples were filtered through 0.45 μm filters (Biofil®, Nylon membrane, 13 mm Ø), the final pH was checked and the concentration was determined by UV spectrophotometry at a wavelength of 254 nm. The statistical analysis of the results was carried out using the Centurion XVI Statgraphics program version 16.1.15.

[2] = pH 5-8; cited from earlier work

CCOCCn1c(C2CCN(CCc3ccc(C(C)(C)C(=O)O)cc3)CC2)nc2ccccc21 [Bilastine, 2-[4-(2-{4-[1-(2-ethoxyethyl)-1H-benzimidazol-2-yl]-1-piperidinyl}ethyl)phenyl]-2-methylpropanoic acid]
solubility at 48 h ([1]; aqueous with cosolvent or surfactant or cyclodextrin, Entry 3: HPβCD 30 % w/v, final pH 4.14): 37.8 mg/mL (≈ 81.5 mM) | solubility at 48 h ([1]; aqueous with cosolvent or surfactant or cyclodextrin, Entry 4: HPβCD 20 % w/v, final pH 5.16): 18.4 mg/mL (≈ 39.6 mM) | solubility at 48 h ([1]; aqueous with cosolvent or surfactant or cyclodextrin, Entry 5: HPβCD 30 % w/v, final pH 5.13): 27.2 mg/mL (≈ 58.7 mM) | solubility at 48 h ([1]; aqueous with cosolvent or surfactant or cyclodextrin, Entry 6: HPβCD 30 % w/v, final pH 7.15): 16.9 mg/mL (≈ 36.5 mM) | solubility at 48 h ([1]; pH 4.6, aqueous with cosolvent or surfactant or cyclodextrin, Entry 2: HPβCD 20 % w/v, final pH 4.60): 35.1 mg/mL (≈ 75.7 mM) | solubility at 48 h ([1]; pH 4.7, aqueous with cosolvent or surfactant or cyclodextrin, Entry 1: HPβCD 10 % w/v, final pH 4.70): 18.3 mg/mL (≈ 39.4 mM) | water solubility of bilastine [2]: about 0.5 mg/ml
